Here are results for one molecule from article PMC5896570 (SLAS discovery : advancing life sciences R & D, 2016).

In test [1] the target is T1, full-length human A2AR (Homo sapiens, UniProt P29274). In kind it is binding. To be noted: for receptor-ligand complexes formed at equilibrium: saturation.
In test [2] the target is T1, full-length human A2AR. It is filed as binding. To be noted: mean ± SEM, n=16; for Kd: read-out: Kinetic KD.
Where [3] appears, read: analytical solution, fixed α 5.6%.
Setting [4] is: numerical solution, fixed KD 22 nM.

Structures are written as SMILES. Several values for one entry are separate records, joined by “and”; a condition that tells them apart may be missing. Equal entries are not always repeated. Where two headings read alike, the source gives them in different places.

As a reminder, the Kd is a measure of binding affinity in units of concentration.

T1 sequence (P29274 whole entry): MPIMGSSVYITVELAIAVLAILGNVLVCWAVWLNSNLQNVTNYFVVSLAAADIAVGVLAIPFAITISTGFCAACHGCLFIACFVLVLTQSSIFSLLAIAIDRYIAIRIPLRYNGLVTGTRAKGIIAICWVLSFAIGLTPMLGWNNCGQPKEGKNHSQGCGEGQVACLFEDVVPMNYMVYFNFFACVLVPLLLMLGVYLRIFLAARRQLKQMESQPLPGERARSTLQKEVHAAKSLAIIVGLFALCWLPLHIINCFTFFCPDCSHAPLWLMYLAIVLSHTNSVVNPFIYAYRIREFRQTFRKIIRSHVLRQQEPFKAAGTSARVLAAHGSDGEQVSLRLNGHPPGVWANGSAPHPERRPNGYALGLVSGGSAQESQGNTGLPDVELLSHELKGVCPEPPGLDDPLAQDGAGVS

Turning to `CCNC(=O)[C@H]1O[C@@H](n2cnc3c(N)nc(NCCc4ccc(CCC(=O)NCCNC(=S)Nc5ccc6c(c5)C(=O)OC6(c5ccc(O)cc5)c5ccc(O)cc5)cc4)nc32)[C@H](O)[C@@H]1O` [FITC-APEC, 2-[2-[4-[2-[2-[1,3-Dihydro-1,1-bis (4-hydroxyphenyl)-3-oxo-5-isobenzofuranthioureidyl]ethylaminocarbonyl]ethyl]phenyl]ethylamino]-5′--ethylcarboxamidoadenosine], the Bmax in test [1] (equilibrium, Scatchard analysis, ± SEM, n=5) was ~ 5.6 % of RT and 5.6 ± 0.4 % of RT. The “receptor-ligand complexes formed at equilibrium” value in test [1] (receptor concentration 160 nM) stood at 9 nM. Further, the “receptor-ligand complexes formed at equilibrium” value in test [1] (receptor concentration 480 nM) worked out at 25 nM. Further, in test [2] (setting [3]), the Residence time turned out to be 22 ± 1.5 min, the koff is on record as 7.7 ± 0.5 x10^−4 s^−1, the kon is 1.5 ± 0.2 x10^4 (M s)^−1 and the equilibrium dissociation constant (Kd) amounted to 73 ± 15 nM. Also, in test [2] (setting [4]), the Residence time came out at 47 ± 3.8 min, the koff is listed as 3.6 ± 0.3 x10^−4 s^−1, the “α (Bmax/RT)” value was found to be 6.8 ± 1.1% and the dissociation constant Kd is 22 ± 2.3 nM.
